Tests used:
[1] = system: WT TpoR transduced primary human T-cells; type: cell-based; settings: for response in relative increase of cell number as concentration increases: varying concentrations, three and five days
Description: Transduced primary human T-cells were incubated with the indicated concentrations of each drug and cells counted after three and five days
(§1) Following expansion cells were washed excessively to remove any exogenous IL2 and plated into 96-well U-bottom plates. Cells were supplemented with IL2 (Proleukin), recombinant human Tpo (Miltenyi Biotec) or Eltrombopag (Stratech Scientific, Suffolk, UK). At various time points thereafter cells were either stained with a 1:400 dilution of eFlor-450 fixable viability dye (eBioscience, UK) and counted directly from the wells using a MACSQuant Cytometer, or were stained with viability dye plus phycoerythrin conjugated anti-CD110 antibodies (Miltenyi Biotec, UK) and analysed using a MACSQuant cytomter. Cell viability and/or transduction level was then analysed using MACSQuantify software (Miltenyi Biotec, UK).
After three and five days the cells were stained with EFlor-450 Live/dead fixable viability dye and the cells in each well counted by flow cytometry.

[2] = system: primary human T-cells harbouring the WT TpoR; experiment: Enrichment of TpoR+ cells (anti-CD110 flow cytometry), WT TpoR T-cells diluted to 20% transduction; type: cell-based; settings: for TpoR positive cells after enrichment: start 20% transduced, up to nine days
Description: as §1, with “FIG. 6—Enrichment kinetics of modular T-cell growth signal receptor engineered T-cells to varying concentrations of IL-2, Eltrombopag (Elt) or thrombopoietin (Tpo). Transduced primary human T-cells were diluted with non-transduced cells to a 20% transduction level. Cells were incubated with the indicated concentrations of each drug and the enrichment of each population established at the indicated time points by staining cells with anti-CD110-PE antibodies. Following expansion” for “Following expansion”, “Biotec, UK). Additional cells were diluted with non-transduced cells to achieve a population with 20% transduction efficiency. […] After three, six and nine days the cells were stained with anti-CD110 (TpoR) antibodies and analysed by flow cytometry.” for “Biotec, UK).”

[3] = system: primary human T-cells harbouring the mt TpoR; experiment: Enrichment of TpoR+ cells (anti-CD110 flow cytometry), mt (truncated) TpoR T-cells diluted to 20% transduction; type: cell-based; settings: for TpoR positive cells after enrichment: start 20% transduced, up to nine days
Description: as §1, with “FIG. 6—Enrichment kinetics of modular T-cell growth signal receptor engineered T-cells to varying concentrations of IL-2, Eltrombopag (Elt) or thrombopoietin (Tpo). Transduced primary human T-cells were diluted with non-transduced cells to a 20% transduction level. Cells were incubated with the indicated concentrations of each drug and the enrichment of each population established at the indicated time points by staining cells with anti-CD110-PE antibodies. Following expansion” for “Following expansion”, “Biotec, UK). Additional cells were diluted with non-transduced cells to achieve a population with 20% transduction efficiency. […] After three, six and nine days the cells were stained with anti-CD110 (TpoR) antibodies and analysed by flow cytometry.” for “Biotec, UK).”

[4] = system: melanoma TIL transduced with WT TpoR; experiment: Enrichment of TpoR+ cells in WT TpoR transduced melanoma tumour infiltrating lymphocytes; type: cell-based, human; settings: for TpoR+ cells after enrichment: from 65% TpoR+
Description: FIG. 12—Analysis of WT TpoR activity in Melanoma Tumour Infiltrating Lymphocytes. Tumour infiltrating lymphocytes (TIL) established from a cutaneous melanoma lesion were lentivirally transduced with the WT TpoR rGFR. The TIL were incubated in the presence of 200 IU/ml IL2 or the indicated concentrations of Tpo or Eltrombopag. At days 2 and 5 cells were removed, stained with PE conjugated anti-CD110 antibodies and analysed using a MACSQuant analyser.
Next we aimed to determine whether the WT TpoR was functionally active in Tumour Infiltrating Lymphocytes (TIL). It was possible that the high doses of IL2 used to generate TIL cultures could make them more dependent on IL2 for subsequent growth. To this end we added lentiviral supernatants to melanoma TIL cultures. Cells were transduced to 65% (FIG. 12). The TILs were cultured in the presence of 200 IU/ml IL-2, or Eltrombopag or Tpo. Cells were analysed for TpoR expression at days 2 and 5. […] In contrast there was no enrichment of TpoR+ cells in the presence of IL2 supporting the notion that this is driven by signals through the TpoR.

[5] = 73 healthy volunteers, higher doses; cited from earlier work
[6] = system: Ba/F3 cells transduced with WT TpoR; experiment: Enrichment of transduced Ba/F3 cells, WT TpoR; type: cell-based, murine; settings: 0.5 μM Eltrombopag or 1.0 μM Tpo; days 3, 5 and 7
Description: (§2) FIG. 10—Analysis of rGFR variants in Ba/F3 cells. The IL3 dependent cell line Ba/F3 was transduced with the indicated rGFR variants and incubated in the presence of 1 μM Tpo, 0.5 μM Eltrombopag or 0.5 ng/ml IL3. Cells were taken at days 3, 5 and 7 stained with PE conjugated anti-CD110 antibodies and analysed using a MACSQuant analyser.
(§3) To determine whether the new variants generated were functionally active we transduced the IL3 dependent cell line Ba/F3 and incubated the cells with either IL-3, 0.5 μM Eltrombopag or 1.0 μM Tpo and measured the proportion of cells expressing the indicated TpoR at days 3, 5 and 7.

[7] = system: Ba/F3 cells transduced with F104S TpoR variant; experiment: Enrichment of transduced Ba/F3 cells, F104S TpoR; type: cell-based, murine; settings: 0.5 μM Eltrombopag or 1.0 μM Tpo; days 3, 5 and 7
Description: as §2, §3

[8] = system: Ba/F3 cells transduced with TpoR-HGHR variant; experiment: Enrichment of transduced Ba/F3 cells, TpoR-HGHR; type: cell-based, murine; settings: 0.5 μM Eltrombopag or 1.0 μM Tpo; days 3, 5 and 7
Description: as §2, §3

[9] = system: Ba/F3 cells transduced with TpoR-PrIR variant; experiment: Enrichment of transduced Ba/F3 cells, TpoR-PrIR; type: cell-based, murine; settings: 0.5 μM Eltrombopag or 1.0 μM Tpo; days 3, 5 and 7; compared with the other variants
Description: as §2, §3

TpoR F104S = biological target: T1, TpoR F104S (Homo sapiens, UniProt P40238, F104S); settings: Fox et al 2010; cited from earlier work
T1 sequence (P40238 26-635 F104S): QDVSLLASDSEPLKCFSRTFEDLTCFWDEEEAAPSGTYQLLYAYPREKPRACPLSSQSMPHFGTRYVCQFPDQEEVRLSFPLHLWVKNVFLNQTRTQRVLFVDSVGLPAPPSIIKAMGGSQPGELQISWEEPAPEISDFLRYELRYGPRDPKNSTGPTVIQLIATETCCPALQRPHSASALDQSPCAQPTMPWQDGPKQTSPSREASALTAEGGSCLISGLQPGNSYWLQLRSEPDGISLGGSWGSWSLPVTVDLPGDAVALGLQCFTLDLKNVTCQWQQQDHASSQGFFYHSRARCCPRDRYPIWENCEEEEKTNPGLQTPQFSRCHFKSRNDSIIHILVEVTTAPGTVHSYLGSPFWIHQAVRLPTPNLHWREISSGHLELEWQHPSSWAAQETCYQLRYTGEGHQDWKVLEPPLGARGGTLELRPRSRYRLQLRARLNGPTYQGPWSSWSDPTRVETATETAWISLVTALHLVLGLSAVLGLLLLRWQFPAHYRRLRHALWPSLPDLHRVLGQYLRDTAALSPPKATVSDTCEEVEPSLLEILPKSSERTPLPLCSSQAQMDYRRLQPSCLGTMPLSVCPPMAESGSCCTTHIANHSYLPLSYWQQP

Molecule: CC1=NN(c2ccc(C)c(C)c2)C(=O)/C1=N\Nc1cccc(-c2cccc(C(=O)O)c2)c1O [Eltrombopag]
- concentration at which responses (relative increase of cell number) are maximal ([1]; 94% transduced, 5×10^4 cells/well, counted after three and five days): around 0.1 μM
- toxicity to the T-cells ([1]; concentrations above around 0.1 μM): becoming toxic
- TpoR positive cells after enrichment ([2]; 0.5 μM Eltrombopag): 83.5%
- TpoR positive cells after enrichment ([3]; 0.5 μM Eltrombopag): 66.6%
- TpoR+ cells after enrichment ([4]; high (1.0 μM) Eltrombopag): 90%
- TpoR+ cells after enrichment ([4]; low (0.1 μM) Eltrombopag): 89%
- tolerability [5]: without tolerability problems

Molecule: IL-2: IL2 (Proleukin), cytokine normally required for optimal T-cell growth
- response in relative increase of cell number as concentration increases [1]: dose dependent responses
- enrichment of TpoR positive cells over time ([2]; 100 IU/ml IL-2 alone): did not become enriched over time
- enrichment of TpoR positive cells over time ([3]; 100 IU/ml IL-2 alone): did not become enriched over time
- enrichment of TpoR+ cells ([4]; 200 IU/ml IL-2): no enrichment

B1: Tpo: recombinant human Tpo (Miltenyi Biotec), native ligand of the thrombopoietin receptor (protein)
chain: SPAPPACDLRVLSKLLRDSHVLHSRLSQCPEVHPLPTPVLLPAVDFSLGEWKTQMEETKAQDILGAVTLLLEGVMAARGQLGPTCLSSLLGQLSGQVRLLLGALQSLLGTQLPPQGRTTAHKDPNAIFLSFQHLLRGKVRFLMLVGGSTLCVRRAPPTTAVPSRTSLVLTLNEL
- maximal response compared with Eltrombopag or IL-2 ([1]; possibly optimal concentrations not used): did not see maximal responses to Tpo comparable to those seen with Eltrombopag or IL-2
- response in relative increase of cell number as concentration increases [1]: dose dependent responses
- TpoR positive cells after enrichment ([2]; 10.0 μM Tpo): 87.5%
- TpoR positive cells after enrichment ([3]; 10.0 μM Tpo): 77.9%
- enrichment of transduced cells [6]: able to support the enrichment of transduced cells
- enrichment of transduced cells [7]: much reduced activity
- functional activity (enrichment of transduced cells) [8]: functional activity
- functional activity (enrichment of transduced cells) [9]: less robust responses
- enrichment of TpoR+ T-cells ([4]; high (1 μM) Tpo): able to induce enrichment
- effect of the F104S extracellular point mutation on responsiveness to the ligand (TpoR F104S): prevent responsiveness

— US12116564B2, “Cells expressing recombinant growth factor receptors” (INSTIL BIO (UK) LIMITED, priority 2015, dated 2024)
